In one experiment the test system is MOLM14 (D835Y) cells. Kind of experiment: Combination drug screening, 10 x 10 matrix, cell viability (Cell Titer Glo). The class given is cell-based. Particulars: for Sum Excess HSA: combination with Compound 96, 10 x 10 dataset, 48 hours; for concentration required to reach a similar level of potentiation as Compound 106: 7.8 nM Venetoclax, 10×10 combination, compared with Compound 106; for Interaction with Venetoclax: combination with Venetoclax, 10 x 10 dataset. As to the method:
Briefly, 10 nL of compounds were acoustically dispensed into 1536-well white polystyrene tissue culture-treated plates with an Echo 550 acoustic liquid handler (Labcyte). MOLM14 (D835Y) cells were then added to compound-containing plates at a density of 500-cells/well in 5 μL of medium. A 10-point custom concentration range was used for all listed drugs. Plates were incubated for 48 hours at standard incubator conditions covered by a stainless steel gasketed lid to prevent evaporation. 48 h post compound addition, 3 μL of Cell Titer Glo (Promega) were added to each well and plates were incubated at room temperature for 15 minutes with the stainless-steel lid in place. Luminescence readings were taken using a Viewlux imager (PerkinElmer) with a 2 second exposure time per plate.
However, different methodologies may yield different numerical scores, and different definitions of what constitutes a deviation from mere additivity vs true drug synergy.
However, the utility in certain drug combinations vs others should not be distinguished based on cutoffs between HSA scores, because the score itself is only a relative indicator that is completely dependent on experimental design and is not an absolute number. Furthermore, the concept of what constitutes clinically meaningful drug synergy is something that is still being debated, not only between pharmacologists and physicians, but amongst pharmacologists themselves.
For orientation: In ATP-based viability assays light output follows the ATP content of the culture.

The target of another experiment is T1, IRAK1 (Homo sapiens, UniProt P51617).
T1 construct: purchased Reaction Biology (RBC HotSpot Kinase Assay)
T1 sequence (P51617 whole entry): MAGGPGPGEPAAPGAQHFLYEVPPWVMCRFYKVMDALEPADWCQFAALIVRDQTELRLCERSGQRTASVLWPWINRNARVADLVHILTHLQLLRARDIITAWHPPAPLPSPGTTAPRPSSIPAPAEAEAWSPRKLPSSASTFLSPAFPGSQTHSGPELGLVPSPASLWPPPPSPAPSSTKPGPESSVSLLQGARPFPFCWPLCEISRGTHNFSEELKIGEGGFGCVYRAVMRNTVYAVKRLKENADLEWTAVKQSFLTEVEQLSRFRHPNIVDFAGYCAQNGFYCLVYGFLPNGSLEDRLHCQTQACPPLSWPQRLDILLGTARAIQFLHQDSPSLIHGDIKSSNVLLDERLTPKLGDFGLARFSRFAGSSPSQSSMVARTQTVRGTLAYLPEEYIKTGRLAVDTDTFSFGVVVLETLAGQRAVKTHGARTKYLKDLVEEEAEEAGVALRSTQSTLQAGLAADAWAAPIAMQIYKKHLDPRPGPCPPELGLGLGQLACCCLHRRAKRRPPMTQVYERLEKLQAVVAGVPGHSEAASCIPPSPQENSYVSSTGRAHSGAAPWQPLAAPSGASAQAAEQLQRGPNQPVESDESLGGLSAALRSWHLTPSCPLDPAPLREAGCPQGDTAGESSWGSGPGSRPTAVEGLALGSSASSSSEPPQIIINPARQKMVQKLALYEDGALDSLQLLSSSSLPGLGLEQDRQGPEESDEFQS
Kind of experiment: RBC HotSpot Kinase Assay, IRAK1. It is filed as biochemical. Put shortly: (§1)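 Radiometric filter-binding (HotSpot) activity assay on isolated recombinant kinase, possibly truncated or catalytic domain only, in 20 mM Hepes pH 7.5, 10 mM MgCl2, 1 mM EGTA, 2 mM DTT, 1% DMSO. Compound preincubated 20 min with kinase and substrate, then ^33P-ATP added. Reaction 2 h at room temperature, read by P81 filter binding.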

The target of a further experiment is T2, FLT3 (Homo sapiens, UniProt P36888).
T2 construct: purchased Reaction Biology (RBC HotSpot Kinase Assay)
T2 sequence (P36888 564-958 limits assumed): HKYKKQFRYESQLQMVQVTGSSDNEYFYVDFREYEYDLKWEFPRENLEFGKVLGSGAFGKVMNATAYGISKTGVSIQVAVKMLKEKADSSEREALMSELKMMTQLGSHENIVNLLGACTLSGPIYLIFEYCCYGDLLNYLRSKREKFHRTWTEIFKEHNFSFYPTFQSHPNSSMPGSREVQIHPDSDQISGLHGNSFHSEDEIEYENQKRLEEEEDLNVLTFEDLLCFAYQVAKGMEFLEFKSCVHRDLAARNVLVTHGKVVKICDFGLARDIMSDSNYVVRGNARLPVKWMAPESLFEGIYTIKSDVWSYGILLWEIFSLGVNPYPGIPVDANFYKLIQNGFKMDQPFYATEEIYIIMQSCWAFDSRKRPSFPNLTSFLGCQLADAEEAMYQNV
The experiment in a line: RBC HotSpot Kinase Assay, FLT3. It is filed as biochemical. Put shortly:
as §1

In the next experiment the target is T3, IRAK4 (Homo sapiens, UniProt Q9NWZ3).
T3 sequence (Q9NWZ3 1-460): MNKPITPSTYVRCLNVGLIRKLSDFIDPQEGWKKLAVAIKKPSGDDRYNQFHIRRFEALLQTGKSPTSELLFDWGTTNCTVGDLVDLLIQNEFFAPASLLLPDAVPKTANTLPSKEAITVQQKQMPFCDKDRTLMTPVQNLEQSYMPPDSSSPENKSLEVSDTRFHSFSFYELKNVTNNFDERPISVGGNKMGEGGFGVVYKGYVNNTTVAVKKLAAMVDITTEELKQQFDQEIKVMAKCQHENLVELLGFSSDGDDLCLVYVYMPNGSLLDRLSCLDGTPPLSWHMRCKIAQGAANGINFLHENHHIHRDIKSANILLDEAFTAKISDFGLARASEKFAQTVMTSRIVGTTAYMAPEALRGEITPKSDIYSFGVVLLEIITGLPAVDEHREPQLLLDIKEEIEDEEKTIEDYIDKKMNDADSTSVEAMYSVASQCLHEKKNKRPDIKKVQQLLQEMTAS
The experiment in a line: RBC HotSpot Kinase Assay, IRAK4. The class given is biochemical. Further details: purchased Reaction Biology (RBC HotSpot Kinase Assay). Put shortly: as §1

As for `CC(C)[C@@H](CS(=O)(=O)C(C)C)N1C(=O)[C@@](C)(CC(=O)O)C[C@H](c2cccc(Cl)c2)[C@H]1c1ccc(Cl)cc1` [AMG-232], the “Sum Excess HSA” value in the experiment on MOLM14 (D835Y) cells is on record as −222.9.
As for `Cc1cc(-c2nc(C(=O)Nc3cc4oc(N5CCOCC5)nc4nc3N3CC[C@@H](O)C3)co2)ccn1` [CA-4948, reference compound], in the experiment on MOLM14 (D835Y) cells, the “concentration required to reach a similar level of potentiation as Compound 106” value is “substantially higher concentrations” and the “Interaction with Venetoclax” value is given as “synergize”.
The corresponding values for `Cc1cnc(-c2ccc(-c3ccc(NC(=O)Nc4c(F)cc(F)cc4F)cc3F)c3c2C(=O)NC3)[nH]1` [CG-806, reference compound] are “substantially higher concentrations” and “synergize”.
As usually defined, the IC50 is the concentration needed to halve the response being measured. Consider `FC(F)c1ccc2ncc(-c3cccc(N[C@H]4CNC[C@@H]4F)n3)n2n1` [Compound 78, 6-(6-(difluoromethyl)imidazo[1,2-b]pyridazin-3-yl)-N-((3S,4S)-4-fluoropyrrolidin-3-yl)pyridin-2-amine], for which the half-inhibitory concentration (IC50) came out at 1860 nM against IRAK1, 6 nM against FLT3 and 29 nM at IRAK4.
Take `F[C@H]1CNC[C@@H]1Nc1cccc(-c2cnc3ccc(C(F)(F)F)nn23)n1` [Compound 79, N-((3S,4S)-4-fluoropyrrolidin-3-yl)-6-(6-(trifluoromethyl)imidazo[1,2-b]pyridazin-3-yl)pyridin-2-amine]: the IC50 is 4570 nM against IRAK1, 3 nM against FLT3 and 21 nM on IRAK4.
For the compound `CC(C)(C)c1ccc2ncc(-c3cccc(N[C@H]4CNC[C@@H]4F)n3)n2n1` [Compound 80, 6-(6-(tert-butyl)imidazo[1,2-b]pyridazin-3-yl)-N-((3S,4S)-4-fluoropyrrolidin-3-yl)pyridin-2-amine], the values for the IC50 against IRAK1, at FLT3 and against IRAK4 were 3420 nM, 11 nM and 231 nM, respectively.
Consider `COc1cc2ncc(-c3cccc(N[C@H]4CNC[C@@H](F)C4)n3)n2nc1C1(C(F)(F)F)CC1` [Compound 86, N-((3R,5S)-5-fluoropiperidin-3-yl)-6-(7-methoxy-6-(1-(trifluoromethyl)cyclopropyl)imidazo[1,2-b]pyridazin-3-yl)pyridin-2-amine], for which the IC50 on IRAK1 came to 937 nM; against FLT3, 2 nM; on IRAK4, 37 nM.
For `COc1ccc2ncc(-c3cccc(N[C@H]4CNC[C@@H]4F)n3)n2n1` [Compound 87, N-((3S,4S)-4-fluoropyrrolidin-3-yl)-6-(6-methoxyimidazo[1,2-b]pyridazin-3-yl)pyridin-2-amine], in that order: 1650 nM, 3 nM and 83 nM.
The corresponding values for `F[C@H]1CNC[C@@H]1Nc1cccc(-c2cnc3ccc(Oc4ccccc4)nn23)n1` [Compound 88, N-((3S,4S)-4-fluoropyrrolidin-3-yl)-6-(6-phenoxyimidazo[1,2-b]pyridazin-3-yl)pyridin-2-amine] are 7240 nM, 22 nM and 959 nM.
As to `CNc1ccc2ncc(-c3cccc(N[C@H]4CNC[C@@H]4F)n3)n2n1` [Compound 89, 3-(6-(((3S,4S)-4-fluoropyrrolidin-3-yl)amino)pyridin-2-yl)-N-methylimidazo[1,2-b]pyridazin-6-amine], the IC50 on IRAK1 is 8050 nM; against FLT3, 5 nM; against IRAK4, 58 nM.
Turning to `CN(C)c1ccc2ncc(-c3cccc(N[C@H]4CNC[C@@H]4F)n3)n2n1` [Compound 90, 3-(6-(((3S,4S)-4-fluoropyrrolidin-3-yl)amino)pyridin-2-yl)-N,N-dimethylimidazo[1,2-b]pyridazin-6-amine], the IC50 against IRAK1 came out at 6290 nM; at FLT3, 4 nM; at IRAK4 it was 61 nM.
In the case of `F[C@H]1CNC[C@@H]1Nc1cccc(-c2cnc3ccc(NC4CCC4)nn23)n1` [Compound 91, N-cyclobutyl-3-(6-(((3S,4S)-4-fluoropyrrolidin-3-yl)amino)pyridin-2-yl)imidazo[1,2-b]pyridazin-6-amine], the figures for the IC50 against IRAK1, against FLT3 and against IRAK4 were 1640 nM, 6 nM and 101 nM, respectively.
With `F[C@H]1CNC[C@@H]1Nc1cccc(-c2cnc3ccc(NC4CCCCC4)nn23)n1` [Compound 92, N-cyclohexyl-3-(6-(((3S,4S)-4-fluoropyrrolidin-3-yl)amino)pyridin-2-yl)imidazo[1,2-b]pyridazin-6-amine], the IC50 was 1640 nM on IRAK1, 78 nM on FLT3 and 1080 nM at IRAK4.
`F[C@H]1CNC[C@@H]1Nc1cccc(-c2cnc3ccc(N4CCC4)nn23)n1` [Compound 93, 6-(6-(azetidin-1-yl)imidazo[1,2-b]pyridazin-3-yl)-N-((3S,4S)-4-fluoropyrrolidin-3-yl)pyridin-2-amine]: the IC50 at IRAK1 was found to be 2680 nM; against FLT3 it was 4 nM; against IRAK4 it was 39 nM.
With `F[C@H]1CNC[C@@H]1Nc1cccc(-c2cnc3ccc(N4CCCCC4)nn23)n1` [Compound 94, N-((3S,4S)-4-fluoropyrrolidin-3-yl)-6-(6-(piperidin-1-yl)imidazo[1,2-b]pyridazin-3-yl)pyridin-2-amine], the IC50 against IRAK1 was determined as 1050 nM; on FLT3, 6 nM; at IRAK4, 33 nM.
Consider `F[C@H]1CNC[C@@H]1Nc1cccc(-c2cnc3ccc(N4CCOCC4)nn23)n1` [Compound 95, N-((3S,4S)-4-fluoropyrrolidin-3-yl)-6-(6-morpholinoimidazo[1,2-b]pyridazin-3-yl)pyridin-2-amine], for which the IC50 against IRAK1 worked out at 1180 nM; on FLT3 it was 4 nM; against IRAK4, 24 nM.
Consider `COc1cc2ncc(-c3cccc(N[C@H]4CNC[C@@H]4C)n3)n2nc1C1CC1` [Compound 98, 6-(6-cyclopropyl-7-methoxyimidazo[1,2-b]pyridazin-3-yl)-N-((3R,4S)-4-methylpyrrolidin-3-yl)pyridin-2-amine], for which the results for the IC50 at IRAK1, against FLT3 and against IRAK4 were 375 nM, less than 0.5 nM and 2 nM, respectively.
In the case of `CC(C)Oc1cnn2c(-c3cccc(N[C@H]4CNC[C@@H]4F)n3)cnc2c1` [Compound 115, N-((3S,4S)-4-fluoropyrrolidin-3-yl)-6-(7-isopropoxyimidazo[1,2-b]pyridazin-3-yl)pyridin-2-amine], the figures for the IC50 on IRAK1, on FLT3 and at IRAK4 were 3190 nM, 9 nM and 323 nM, respectively.
Take `COc1cc2ncc(-c3cccc(N[C@H]4CNC[C@@H]4F)n3)n2nc1-c1cn[nH]c1` [Compound 119]: the IC50 against IRAK1 is 75 nM; at FLT3, less than 0.5 nM; on IRAK4, less than 0.5 nM.
On to `COc1cc2ncc(-c3cccc(N[C@@H]4CCCNC4)n3)n2nc1N1CCCC1=O` [Compound 137, (R)-1-(7-methoxy-3-(6-(piperidin-3-ylamino)pyridin-2-yl)imidazo[1,2-b]pyridazin-6-yl)pyrrolidin-2-one], for which the IC50 was greater than 10000 nM against IRAK1, 13 nM against FLT3 and 1980 nM against IRAK4.
`Cc1c(-c2c(-c3ccc(F)o3)sc3ncnc(O[C@H](Cc4ccccc4OCc4ccnn4CC(F)(F)F)C(=O)O)c23)ccc(OCCN2CCN(C)CC2)c1Cl` [Compound S63845]: in the experiment with MOLM14 (D835Y) cells, the “Sum Excess HSA” value is recorded as 297.3.
In the case of `COc1c(OCCCN2CCOCC2)ccc2c1N=C(NC(=O)c1cnc(N)nc1)N1CCN=C21` [Copanlisib], the “Sum Excess HSA” value in the experiment with MOLM14 (D835Y) cells is −542.8.

For the origin of these results see patent US12534469B2 (CHILDREN'S HOSPITAL MEDICAL CENTER, priority 2020, dated 2026).
